Data reported in US8889662B2, “Method to alter sex ratios in avian offspring” (University of Georgia Research Foundation, Inc., priority 2009, dated 2014).

Test system: white leghorn and brown hyline hens
Assay: Example 1: offspring sex after a single maternal CORT injection, chickens
Format: in vivo, chicken
Conditions: 2 mg CORT about 19 h after a mid-sequence egg, p=0.002 vs controls, p<0.0001 vs non-injected
Procedure: This experiment was similar to the previous one in that a single injection of CORT was provided at the time of meiotic segregation and the sexes of the resulting eggs were quantified. Laying patterns of female white leghorn and brown hyline hens were monitored and timed. Females that were laying between 1000 and 1200 h EST were included in the experiment. Females were artificially inseminated using pooled semen from 5-10 roosters at two time points prior to treatment.
Approximately 19 h following the appearance of a mid-sequence egg, females received one of three treatments: (1) a high dose of CORT (2 mg in 0.5 ml peanut oil), (2) a control treatment (0.5 ml peanut oil), or (3) no injection treatment. The egg corresponding to the next ovulation event was labeled, collected, and incubated at 37° C. for a period of 7 days to allow for embryonic development. Embryos were separated and sexed using PCR based techniques as described above. The percentage of females producing male offspring in each group were calculated and compared using chi square analyses. […] CORT was quantified using a standard radioimmunoassay and CORT concentrations were log transformed and analyzed using an analysis of variance (ANOVA).

`C[C@]12C[C@H](O)[C@H]3[C@@H](CCC4=CC(=O)CC[C@@]43C)[C@@H]1CC[C@@H]2C(=O)CO` [corticosterone] was tested, and the “likelihood of male embryos compared to controls and non-injected females” value was “significantly more likely to be male”.
